Laboratory results from patent publication US20050124684A1, “5-(hydroxymethyl) furfural and derivatives as inhibitors of TNFalpha and IL-1beta production” (priority 2003, published 2005).

Tests used:
IL-1β = test: Inhibition of LPS-induced IL-1β expression in PBMCs (ELISA); assay type: cell-based; conditions: LPS-stimulated PBMCs; for Concentration of IL-1β in PBMCs / Inhibition ratio of production of IL-1β in PBMCs: overnight
Experimental: (§1) Peripheral blood […] (PBMCs) were isolated from fresh blood using a Ficoll-Paque Plus reagent (Amersham Bioscience) according to the protocol recommended by the manufacturer. The cells were suspended in a RPMI 1640 medium containing 10% FBS at a concentration of 1×10^5 cells/ml and seeded in a 96-well plate (1×10^4 cells total in each well). Each reaction was carried out in three wells. […] In a positive control, dexamethason (DEX), an anti-inflammatory agent, instead of 5-HMF, was added (final concentration 10 μM). In a positive control, 10 μl of the medium, instead of 5-HMF, was added. The plate was incubated at 37° C. under 5% CO2 for 15 minutes. After 10 μl aliquots of 100 μg/ml of lipopolysaccharide (LPS) were added to all wells except for the negative control, the plate was incubated at 37° C. under 5% CO2 overnight. The plate was spun at 1000 rpm for 15 minutes and the supernatants were collected. The concentrations of TNFα and IL-1β were measured by the TNFα ELISA (Enzyme Linked Immunosorbent Assay) Kit and IL1-β ELISA Kit (Jingmei Bioengineer Technology). The inhibition ratios of TNFα and IL1-β were calculated as follows and the results are shown in Tables 1 and 2: TNFα Inhibition Ratio (%)=[TNFα]control−[TNFα]5-HMF/[TNFα]control×100% IL1-β Inhibition Ratio (%)=[IL1-β]control−[IL1-β]5-HMF/[IL1-β]control×100% where [TNFα]5-HMF is the concentration of TNFα in PBMCs treated with 5-HMF and LPS, [TNFα]control is the concentration of TNFα in PBMCs treated with LPS and the medium, [IL1-β]5-HMF is the concentration of IL1-β in PBMCs treated with 5-HMF and LPS, and [IL1-β]control is the concentration of IL1-β in PBMCs treated with LPS and the medium.

TNFα = test: Inhibition of LPS-induced TNFα expression in PBMCs (ELISA); assay type: cell-based; conditions: LPS-stimulated PBMCs; for Concentration of TNFα in PBMCs / Inhibition ratio of production of TNFα in PBMCs: overnight
Experimental: as §1

[1] = at the concentration of 300 μg/ml

## O=Cc1ccc(CO)o1 [5-HMF, 5-(hydroxymethyl)furfural]
IL-1β; 5-HMF 3 μg/ml
  Concentration of IL-1β in PBMCs: 69.9 ± 12.6 pg/mL
  Inhibition ratio of production of IL-1β in PBMCs: 40.2 ± 10.8%
IL-1β; 5-HMF 10 μg/ml
  Concentration of IL-1β in PBMCs: 62.7 ± 10.5 pg/mL
  Inhibition ratio of production of IL-1β in PBMCs: 46.4 ± 9.0%
IL-1β; 5-HMF 30 μg/ml
  Concentration of IL-1β in PBMCs: 40.1 ± 2.4 pg/mL
  Inhibition ratio of production of IL-1β in PBMCs: 65.7 ± 2.0%
IL-1β; 5-HMF 100 μg/ml
  Concentration of IL-1β in PBMCs: 13.0 ± 3.7 pg/mL
  Inhibition ratio of production of IL-1β in PBMCs: 88.8 ± 3.1%
IL-1β; 5-HMF 300 μg/ml
  Concentration of IL-1β in PBMCs: 0 ± 5.0 pg/mL
  Inhibition ratio of production of IL-1β in PBMCs: 100 ± 4.3%
IL-1β; [1]
  Inhibition of expression of IL-1β (in words): completely inhibited
IL-1β; over the tested concentrations
  Inhibition of expression of IL-1β (in words): concentration-dependent
TNFα; 5-HMF 3 μg/ml
  Concentration of TNFα in PBMCs: 124.4 ± 15.2 pg/mL
  Inhibition ratio of production of TNFα in PBMCs: 15.7 ± 10.3%
TNFα; 5-HMF 10 μg/ml
  Concentration of TNFα in PBMCs: 107.9 ± 20.0 pg/mL
  Inhibition ratio of production of TNFα in PBMCs: 26.8 ± 13.6%
TNFα; 5-HMF 30 μg/ml
  Concentration of TNFα in PBMCs: 82.9 ± 27.9 pg/mL
  Inhibition ratio of production of TNFα in PBMCs: 43.8 ± 18.9%
TNFα; 5-HMF 100 μg/ml
  Concentration of TNFα in PBMCs: 39.3 ± 19.7 pg/mL
  Inhibition ratio of production of TNFα in PBMCs: 73.4 ± 13.4%
TNFα; 5-HMF 300 μg/ml
  Concentration of TNFα in PBMCs: 0.3 ± 6.4 pg/mL
  Inhibition ratio of production of TNFα in PBMCs: 99.3 ± 4.3%
TNFα; [1]
  Inhibition of expression of TNFα (in words): completely inhibited
TNFα; over the tested concentrations
  Inhibition of expression of TNFα (in words): concentration-dependent

## C[C@@H]1C[C@H]2[C@@H]3CCC4=CC(=O)C=C[C@]4(C)[C@@]3(F)[C@@H](O)C[C@]2(C)[C@@]1(O)C(=O)CO [DEX, dexamethason, reference compound]
IL-1β; 10 μM DEX
  Concentration of IL-1β in PBMCs: 20.2 ± 7.0 pg/mL
  Inhibition ratio of production of IL-1β in PBMCs: 82.7 ± 6.0%
TNFα; 10 μM DEX
  Concentration of TNFα in PBMCs: 39.5 ± 9.0 pg/mL
  Inhibition ratio of production of TNFα in PBMCs: 73.2 ± 6.1%
